In patent US4604239A, “Antibiotics” (Eli Lilly and Company, priority 1985, dated 1986):
Values after ≈ are worked out from the molar mass of the structure shown.

Key:
Experiment in all cases: agar-dilution MIC
Assay type in all cases: cell-based
[1] = tested on: Staphylococcus aureus
[2] = tested on: Hemophilus influenzae
[3] = tested on: Streptococcus pneumoniae
From the text: (§1) The agar-dilution procedure described by the International Collaborative study (ICS) group was used to determine the minimum inhibitory concentrations (MIC's).

[4] = tested on: Streptococcus pyogenes
From the text: as §1

[5] = tested on: Streptococcus sp. (Group D); conditions: Table 11
From the text: as §1

Q: `NC1C(=O)NC2Cc3ccc(c(Cl)c3)Oc3cc4cc(c3O)Oc3ccc(cc3Cl)C(O)C3NC(=O)C(NC(=O)C4NC(=O)C(NC2=O)c2cc(O)cc(c2)Oc2cc1ccc2O)c1cc(Cl)c(O)c(c1)-c1c(O)cc(O)cc1C(C(=O)O)NC3=O` (centres unmarked) [A41030 factor A] was tested. Which MIC ([1]; Staphylococcus aureus 3055, Table 11) did it give?
A: The MIC was 0.13 µg/mL (≈ 0.105 µM).

Q: What about the MIC ([1]; Staphylococcus aureus 3055, end point after 24 hours, Table 18) of the same molecule?
A: The MIC was 0.06 µg/mL (≈ 0.0486 µM).

Q: And the MIC ([1]; Staphylococcus aureus 3074, Penicillin-resistant, Table 11)?
A: Its MIC is no more than 0.06 µg/mL.

Q: What about the MIC ([1]; Staphylococcus aureus 3131 (**Penicillin, methicillin, and erythromycin), Table 11) of the same molecule?
A: Its MIC is no more than 0.06 µg/mL.

Q: And the MIC ([1]; Staphylococcus aureus 3134 (**Penicillin, methicillin, and erythromycin), Table 11)?
A: The MIC was no more than 0.06 µg/mL.

Q: And the MIC ([1]; Staphylococcus aureus H43, Penicillin-resistant, Table 11)?
A: The MIC was no more than 0.06 µg/mL.

Q: What about the MIC ([1]; Staphylococcus aureus H290, Table 11) of the same molecule?
A: The MIC was no more than 0.06 µg/mL.

Q: What about the MIC ([1]; Staphylococcus aureus S13E, Table 17) of the same molecule?
A: The MIC was 0.25 µg/mL (≈ 0.203 µM).

Q: And the MIC ([1]; Staphylococcus aureus V57, Penicillin-resistant, Table 11)?
A: Its MIC is no more than 0.06 µg/mL.

Q: What about the MIC ([1]; Staphylococcus aureus V138, end point after 24 hours, Table 18) of the same molecule?
A: Its MIC is 0.06 µg/mL (≈ 0.0486 µM).

Q: And the MIC ([2]; Haemophilus influenzae 76, end point after 24 hours, Table 18)?
A: The MIC was 4 µg/mL (≈ 3.24 µM).

Q: What about the MIC ([2]; Haemophilus influenzae 251, Table 17) of the same molecule?
A: The MIC was 2 µg/mL (≈ 1.62 µM).

Q: What about the MIC ([2]; Haemophilus influenzae 312, end point after 24 hours, Table 18) of the same molecule?
A: Its MIC is 2 µg/mL (≈ 1.62 µM).

Q: What about the MIC ([2]; Haemophilus influenzae 4842, end point after 24 hours, Table 18) of the same molecule?
A: Its MIC is 2 µg/mL (≈ 1.62 µM).

Q: And the MIC ([2]; Haemophilus influenzae 16836, end point after 24 hours, Table 18)?
A: The MIC was 4 µg/mL (≈ 3.24 µM).

Q: What about the MIC ([2]; Haemophilus influenzae Bond, end point after 24 hours, Table 18) of the same molecule?
A: The MIC was 2 µg/mL (≈ 1.62 µM).

Q: And the MIC ([2]; Haemophilus influenzae Brun, Table 17)?
A: Its MIC is 8 µg/mL (≈ 6.49 µM).

Q: What about the MIC ([2]; Haemophilus influenzae C.L., end point after 24 hours, Table 18) of the same molecule?
A: The MIC was 4 µg/mL (≈ 3.24 µM).

Q: And the MIC ([2]; Haemophilus influenzae Mx366, end point after 24 hours, Table 18)?
A: Its MIC is 2 µg/mL (≈ 1.62 µM).

Q: And the MIC ([2]; Haemophilus influenzae Mx371, end point after 24 hours, Table 18)?
A: Its MIC is 2 µg/mL (≈ 1.62 µM).

Q: And the MIC ([2]; Hemophilus influenzae 75-312, Table 9)?
A: Its MIC is 8 µg/mL (≈ 6.49 µM).

Q: What about the MIC ([2]; Hemophilus influenzae 75-313, Table 9) of the same molecule?
A: The MIC was 16 µg/mL (≈ 13 µM).

Q: What about the MIC ([2]; Hemophilus influenzae 75-364, Table 9) of the same molecule?
A: Its MIC is 16 µg/mL (≈ 13 µM).

Q: What about the MIC ([2]; Hemophilus influenzae 75-465, Table 9) of the same molecule?
A: The MIC was 32 µg/mL (≈ 25.9 µM).

Q: And the MIC ([2]; Hemophilus influenzae 75-19300, Table 9)?
A: The MIC was 16 µg/mL (≈ 13 µM).

Q: What about the MIC ([2]; Hemophilus influenzae 75-90383, Table 9) of the same molecule?
A: The MIC was 16 µg/mL (≈ 13 µM).

Q: What about the MIC ([2]; Hemophilus influenzae 4842, Table 9) of the same molecule?
A: The MIC was 8 µg/mL (≈ 6.49 µM).

Q: What about the MIC ([2]; Hemophilus influenzae A. Hall, Table 9) of the same molecule?
A: The MIC was 16 µg/mL (≈ 13 µM).

Q: And the MIC ([2]; Hemophilus influenzae Bruno, Table 9)?
A: Its MIC is 16 µg/mL (≈ 13 µM).

Q: And the MIC ([2]; Hemophilus influenzae C. Steele, Table 9)?
A: Its MIC is 16 µg/mL (≈ 13 µM).

Q: And the MIC ([2]; Hemophilus influenzae G. Newton, Table 9)?
A: The MIC was 32 µg/mL (≈ 25.9 µM).

Q: And the MIC ([2]; Hemophilus influenzae Howard, Table 9)?
A: Its MIC is 16 µg/mL (≈ 13 µM).

Q: And the MIC ([2]; Hemophilus influenzae Miller, Table 9)?
A: The MIC was 16 µg/mL (≈ 13 µM).

Q: And the MIC ([2]; Hemophilus influenzae P. Wylie, Table 9)?
A: Its MIC is 16 µg/mL (≈ 13 µM).

Q: And the MIC ([2]; Hemophilus influenzae R251, Table 9)?
A: The MIC was 16 µg/mL (≈ 13 µM).

Q: What about the MIC ([2]; Hemophilus influenzae R259, Table 9) of the same molecule?
A: The MIC was 16 µg/mL (≈ 13 µM).

Q: What about the MIC ([2]; Hemophilus influenzae R272, Table 9) of the same molecule?
A: The MIC was 16 µg/mL (≈ 13 µM).

Q: What about the MIC ([2]; Hemophilus influenzae R274, Table 9) of the same molecule?
A: The MIC was 16 µg/mL (≈ 13 µM).

Q: What about the MIC ([2]; Hemophilus influenzae S. Ford, Table 9) of the same molecule?
A: Its MIC is 16 µg/mL (≈ 13 µM).

Q: What about the MIC ([3]; Streptococcus pneumoniae 2764, Table 11) of the same molecule?
A: The MIC was 0.25 µg/mL (≈ 0.203 µM).

Q: What about the MIC ([3]; Streptococcus pneumoniae 6301, Table 11) of the same molecule?
A: Its MIC is 0.25 µg/mL (≈ 0.203 µM).

Q: And the MIC ([3]; Streptococcus pneumoniae B1-438, end point after 24 hours, Table 18)?
A: The MIC was 0.25 µg/mL (≈ 0.203 µM).

Q: What about the MIC ([3]; Streptococcus pneumoniae BI-343, Table 11) of the same molecule?
A: The MIC was 0.25 µg/mL (≈ 0.203 µM).

Q: And the MIC ([3]; Streptococcus pneumoniae Park I, Table 11)?
A: Its MIC is 0.25 µg/mL (≈ 0.203 µM).

Q: What about the MIC ([3]; Streptococcus pneumoniae Park I, Table 17) of the same molecule?
A: The MIC was 0.5 µg/mL (≈ 0.405 µM).

Q: And the MIC ([3]; Streptococcus pneumoniae Type 14, Table 11)?
A: The MIC was 0.25 µg/mL (≈ 0.203 µM).

Q: What about the MIC ([4]; Streptococcus pyogenes 9943, Table 11) of the same molecule?
A: The MIC was 0.25 µg/mL (≈ 0.203 µM).

Q: What about the MIC ([4]; Streptococcus pyogenes 10389, Table 11) of the same molecule?
A: The MIC was 0.25 µg/mL (≈ 0.203 µM).

Q: What about the MIC ([4]; Streptococcus pyogenes 12344, Table 11) of the same molecule?
A: The MIC was 0.5 µg/mL (≈ 0.405 µM).

Q: What about the MIC ([4]; Streptococcus pyogenes C203, Table 11) of the same molecule?
A: The MIC was 0.25 µg/mL (≈ 0.203 µM).

Q: What about the MIC ([4]; Streptococcus pyogenes C203, Table 17) of the same molecule?
A: The MIC was 0.5 µg/mL (≈ 0.405 µM).

Q: What about the MIC ([4]; Streptococcus pyogenes C203, end point after 24 hours, Table 18) of the same molecule?
A: The MIC was 0.25 µg/mL (≈ 0.203 µM).

Q: What about the MIC ([4]; Streptococcus pyogenes M-6517, Table 11) of the same molecule?
A: Its MIC is 0.25 µg/mL (≈ 0.203 µM).

Q: And the MIC ([5]; Streptococcus sp. (Group D) 238)?
A: The MIC was 0.25 µg/mL (≈ 0.203 µM).

Q: And the MIC ([5]; Streptococcus sp. (Group D) 282)?
A: Its MIC is 0.25 µg/mL (≈ 0.203 µM).

Q: What about the MIC ([5]; Streptococcus sp. (Group D) 9901) of the same molecule?
A: Its MIC is 0.25 µg/mL (≈ 0.203 µM).
